Experimental data from patent US7935720B2, “Crystal of substituted phenylalkanoic acid ester and process for producing the same” (Asahi Kasei Pharma Corporation, priority 2006, dated 2011).

Key:
[1] = system: prostaglandin production; conditions: reported in Patent Document 1; cited from earlier work
[2] = system: leukotriene production; conditions: reported in Patent Document 1; cited from earlier work
[3] = Solubility test in Japanese Pharmacopoeia disintegration test fluids (HPLC); format: physicochemical; conditions: for Solubility to 1st fluid for disintegration test of Japanese Pharmacopoeia (pH 1.2) / Solubility to 2nd fluid for disintegration test of Japanese Pharmacopoeia (pH 6.8): shaken for 24 hours at 37° C.
Experimental: The type A crystals of compound 1 of the invention prepared according to Example 3, and the type B crystals of compound 1 of the invention prepared according to Example 4 were respectively weighed to 10 mg in a 10-mL centrifuge tube, 3 mL each of 1st fluid for disintegration test of Japanese Pharmacopoeia (pH 1.2) was added respectively, and the mixture solutions were shaken for 24 hours at 37° C. After the shaking, the solutions were filtered, 1 mL of each filtrate was exactly pipeted, and 1 mL of acetonitrile was exactly added to obtain a sample solution.
The sample solutions were analyzed by using HPLC technique with the following conditions and the concentration of the compound in the sample solution was determined by comparing it with that of a standard solution having an already known concentration under the following HPLC conditions, to determine the solubility.
The same test was performed with 2nd fluid for disintegration test of Japanese Pharmacopoeia (pH 6.8), to determine the solubility.
Detector: Ultraviolet absorption spectrometer (wavelength: 235 nm)
Mobile phase: 50 mmol/L sodium dihydrogen phosphate/acetonitrile (55:45)
Column: YMC-Pack Pro C18, internal diameter: 4.6 mm, length: 15 cm (YMC Corporation)
Column temperature: 40° C.

[4] = Measurement of water content after filtration; format: physicochemical; conditions: wet crystals after filtration and dehydration; calculated from weight of wet crystals and weight after drying
Experimental: The respective water contents of the crystals obtained in Example 10 and Example 11 were calculated from the weight of the wet crystals and the weight of the crystals after drying.

[5] = system: footpad edema in rat adjuvant arthritis; assay: Prophylactic and therapeutic effect against rat adjuvant arthritis; format: in vivo; conditions: oral, 0.1 to 50 mg/0.2 ml/kg, suspended in 0.5% methylcellulose; compared with the positive control group
Experimental: For the compounds of the invention, a suppressive effect against footpad edema in rat adjuvant arthritis, which is a disease model for chronic rheumatoid arthritis as being one of autoimmune diseases and also a chronic inflammatory disease, was investigated according to the method of International Patent Publication No. WO 03/70686. The test compound was suspended in purified water containing 0.5% methylcellulose, and was orally administered to test animals at a dose of 0.1 to 50 mg/0.2 ml/kg.

| SMILES | Prostaglandin production suppressing effect [1] | Leukotriene production suppressing effect [2] | Solubility to 1st fluid for disintegration test of Japanese Pharmacopoeia (pH 1.2) [3] [mg/mL] | Solubility to 2nd fluid for disintegration test of Japanese Pharmacopoeia (pH 6.8) [3] [mg/mL] | Water content [4] [%] | Suppression of footpad edema in rat adjuvant arthritis [5] | Solubility of type A crystal relative to type B crystal ([3]; 1st fluid (pH 1.2) and 2nd fluid (pH 6.8)) |
| --- | --- | --- | --- | --- | --- | --- | --- |
| Cn1ncc2cc(-c3cc(CCC(=O)O)cc(N)c3OC3Cc4ccccc4C3)ccc21 [Compound 1, 3-[3-amino-4-(indan-2-yloxy)-5-(1-methyl-1H-indazol-5-yl)phenyl]propionic acid] | prostaglandin production suppressing effect | leukotriene production suppressing effect |  |  |  |  |  |
| Cn1ncc2cc(-c3cc(CCC(=O)O)cc(N)c3OC3Cc4ccccc4C3)ccc21 [Type B crystal, 3-[3-amino-4-(indan-2-yloxy)-5-(1-methyl-1H-indazol-5-yl)phenyl]propionic acid] |  |  | 0.01 | 0.02 | 39.3 | suppressed footpad edema |  |
| Cn1ncc2cc(-c3cc(CCC(=O)O)cc(N)c3OC3Cc4ccccc4C3)ccc21 [Type A crystal, 3-[3-amino-4-(indan-2-yloxy)-5-(1-methyl-1H-indazol-5-yl)phenyl]propionic acid] |  |  | 0.03 | 0.06 | 52.5 | suppressed footpad edema | three-fold greater |
